Experimental findings from PMC10349804, “Natural resveratrol analogs differentially target endometriotic cells into apoptosis pathways” (Scientific Reports, 2023) are described below.

SMILES strings stand for the structures.

What all share (format): cell-based, human
Assay [1] has as its system endometriotic 12Z cells. In words: Cell cycle analysis by PI staining, flow cytometry. The conditions noted are these: 100 µM, 48 h. As for the experimental part: To investigate whether resveratrol and its analogs have interfered with cell cycle progression in endometriotic 12Z cells, we analyzed the cell cycle distribution by flow cytometry. […] The largest subpopulation of apoptotic cells was found in the cell cultures treated with resveratrol and pterostilbene at the concentration of 100 µM (31.2 ± 8.0% and 33.1 ± 9.7%, respectively) and piceatannol at a concentration of 200 µM (45.1 ± 5. 6%).
Cell cycle progression was analyzed by flow cytometry using PI staining. After treatment, 12Z cells were collected, washed with PBS, and fixed in 70% ethanol. The cells were then washed, resuspended in PBS, and stained with 50 μg/ml PI in the presence of 100 μg/ml RNase A. Cell cycle distribution was analyzed using a FACSCanto flow cytometer (Becton Dickinson, San Jose, CA, USA). Data analysis was performed with the FACS Diva software (Becton Dickinson).

The test system of assay [2] is endometriotic 12Z cells. The assay can be described thus: TUNEL assay of DNA fragmentation, flow cytometry. To be noted: 200 µM, 48 h. The method, then: Cell death via apoptosis in 12Z cells after exposure to resveratrol and its natural derivatives was determined by detecting DNA fragmentation (Fig. 5). DNA degradation was correlated in a dose-dependent manner. […] Tunel-positive cell population in the 12Z cell culture treated with camptothecin was estimated at 32.5%, compared to 0.6% in the vehicle-treated control culture.
The detection of DNA fragmentation in 12Z cells was performed using the terminal deoxynucleotidyl-transferase-mediated dUTP nick end labeling (TUNEL) assay with In Situ Cell Death Detection Kit (Roche Diagnostics, Indianapolis, IN, USA). The test detects DNA breakage that is identified by terminal deoxynucleotidyl transferase. After treatment, the harvested cells were fixed in 4% paraformaldehyde and permeabilized in 0.1% Triton X-100. After washing in PBS, cells were subjected to TUNEL labeling with fluorescein-labeled dUTP and terminal deoxynucleotidyl transferase mixture. Cells were analyzed by flow cytometry using an Amnis™ FlowSight™ flow cytometer.

For assay [3], the system named is endometriotic 12Z cells. The assay can be described thus: Annexin V/PI double staining, flow cytometry. To be noted: 200 µM, 48 h. As for the experimental part: After treating endometriotic 12Z cells with stilbenes, the phosphatidylserine externalization was measured by Annexin V and PI double staining (Fig. 4A). Examples of the single-cell images from sub-populations: live cells (Annexin V/PI-double negative), early apoptotic cells (Annexin V-positive/PI-negative), late apoptotic cells (Annexin V/PI-double positive), necrotic cells (Annexin V-negative/PI-positive) are presented in Fig. 4B.
Figure 4 Flow cytometry analysis of endometriotic 12Z cells stained with PI and FITC-Annexin V. Cells were treated with resveratrol, pterostilbene, piceatannol, polydatin and their vehicle (0.5% ethanol) for 48 h. Camptothecin was used as a positive control. (A) Representative images of each distinct cellular subset. n = 4; scale bars = 20 μm. (B) Representative flow cytometry dot plots. (C) Summary of FITC-Annexin V and PI stained populations in 12Z cell cultures. […] The results are presented as means ± SD. *p < 0.05, **p < 0.01, ***p < 0.001 compared to vehicle control.
Apoptosis was determined by Annexin V and propidium iodide (PI) double staining with the FITC Annexin V Apoptosis Detection kit (BD Pharmingen, Heidelberg, Germany) by flow cytometry according to the manufacturer's instructions. […] The cells were analyzed with an Amnis™ FlowSight™ flow cytometer (Luminex Corporation, TX, USA). […]
For orientation: Flow cytometry measures light scatter and fluorescence of single cells or particles in a stream.

Another assay relates to BAX gene. In words: Real-time PCR, BAX mRNA expression in 12Z cells. The conditions noted are these: 100 µM, fold of control, normalized against β-actin. From the text:
The effect of resveratrol and its natural analogs on the expression of pro- or antiapoptotic regulators, was examined by real-time PCR. […] BAX overexpression was also documented in 12Z cells exposed to resveratrol.
Figure 7 Effect of resveratrol and its analogs on the mRNA expression of BCL2, BCL2L1, BAX, FAS, CASP3, CASP8, and CASP9 genes in endometriotic 12Z cells, assessed by real-time PCR. Data were normalized against β-actin and expressed as relative mRNA expression (-fold of control). The values represent the means (n = 3) ± SD. Significant differences *p < 0.05; **p < 0.01; ***p < 0.001 compared to vehicle control.
Gene expression analysis was carried out according to the previously described protocol. TRI reagent was applied for total RNA isolation, synthesis cDNA Transcriptor First-Strand kit (Roche Diagnostics GmbH, Mannheim, Germany) for first-strand cDNA synthesis, and SYBR® Select Master Mix (Life Technologies, Carlsbad, CA, USA) for real-time PCR. The levels of transcripts were normalized using β-actin as an internal control, which was previously applied in 12Z cells. Relative mRNA expression was shown as fold change calculated using the 2^−ΔΔCt method compared with control cells.
A general note: Real-time PCR tracks product formation cycle by cycle.

On to `COc1cc(C=Cc2ccc(O)cc2)cc(OC)c1` [Pterostilbene, 3,5-dimethoxy-4′-hydroxystilbene], for which, in the assay on endometriotic 12Z cells [1], the “subpopulation of apoptotic cells (lower DNA content, subG1)” value is given as 33.1 ± 9.7%. For the same compound, the “DNA strand breaks (TUNEL-positive cells)” value with endometriotic 12Z cells [2] came to 62.6%. Further, in the assay on endometriotic 12Z cells [3], the “treated cells classified as apoptotic cells” value was “approximately 94%”. The “BAX mRNA expression increase” value in the assay on BAX gene is on record as “approximately 16 fold”.
